The text below walks through data of PubChem BioAssay AID330 (DTP/NCI, 2004).

For the test, the system named is P388 leukemia ip, CD2F1 mice, survival T/C. Description: NCI In Vivo Anticancer Drug Screen. Data for tumor model P388 Leukemia (intraperitoneal) in CD2F1 (CDF1) mice. As to conditions: endpoint: median survival time, higher = longer survival. An outline of the steps:
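Mice carrying the transplanted tumor received test compound or vehicle. Survival was recorded in each group, and the value is the treated-group measurement divided by that of the vehicle-treated control group.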

Setting [1] is: dose: 100.0 mg/kg/injection, schedule: Q04DX003 (ip), vehicle: saline.
Where [2] appears, read: dose: 200.0 mg/kg/injection, schedule: Q04DX003 (ip), vehicle: saline.
The mark [3] stands for this setting: dose: 400.0 mg/kg/injection, schedule: Q04DX003 (ip), vehicle: saline.
Setting [4] is: dose: 50.0 mg/kg/injection, schedule: Q01DX009 (ip), vehicle: saline.
The mark [5] stands for this setting: dose: 50.0 mg/kg/injection, schedule: Q01DX005 (ip), vehicle: Klucel (hydroxypropylcellulose) (HPC).
[6] abbreviates: dose: 100.0 mg/kg/injection, schedule: Q01DX005 (ip), vehicle: Klucel (hydroxypropylcellulose) (HPC).
[7] abbreviates: dose: 200.0 mg/kg/injection, schedule: Q01DX005 (ip), vehicle: Klucel (hydroxypropylcellulose) (HPC).
[8] abbreviates: dose: 12.5 mg/kg/injection, schedule: Q01DX009 (ip), vehicle: saline.
Setting [9] is: dose: 25.0 mg/kg/injection, schedule: Q01DX009 (ip), vehicle: saline.
Where [10] appears, read: dose: 6.25 mg/kg/injection, schedule: Q01DX009 (ip), vehicle: Klucel (hydroxypropylcellulose) (HPC).
The mark [11] stands for this setting: dose: 12.5 mg/kg/injection, schedule: Q01DX009 (ip), vehicle: Klucel (hydroxypropylcellulose) (HPC).
The mark [12] stands for this setting: dose: 25.0 mg/kg/injection, schedule: Q01DX009 (ip), vehicle: Klucel (hydroxypropylcellulose) (HPC).
[13] abbreviates: dose: 60.0 mg/kg/injection, schedule: Q01DX005 (ip), vehicle: saline with Tween-80.
Where [14] appears, read: dose: 120.0 mg/kg/injection, schedule: Q01DX005 (ip), vehicle: saline with Tween-80.
Where [15] appears, read: dose: 240.0 mg/kg/injection, schedule: Q01DX005 (ip), vehicle: saline with Tween-80.
[16] abbreviates: dose: 50.0 mg/kg/injection, schedule: Q01DX009 (ip), vehicle: saline with Tween-80.
[17] abbreviates: dose: 100.0 mg/kg/injection, schedule: Q01DX009 (ip), vehicle: saline with Tween-80.
The mark [18] stands for this setting: dose: 200.0 mg/kg/injection, schedule: Q01DX009 (ip), vehicle: saline with Tween-80.

“And” between values parts separate entries of the source, which are not always exact repeats. Identical values can stand only once. Toxic doses and inconclusive results are not listed.

For the molecule `C[N+]1=CN(S(=O)(=O)C2C=CC=CC=C2)C(C)(C)C1(C)C`, the T/C reads like this: under setting [1], 103 % of control; under setting [2], 103 % of control; under setting [3], 99 % of control.

In the case of `CCCCCCCCCCCCCCCCCC[N+]1([O-])CCOCC1`, the T/C runs as follows: under setting [4], 98 % of control; (dose: 100.0 mg/kg/injection, schedule: Q01DX009 (ip), vehicle: saline) 96 % of control.

As to `OC(CC1(O)C(F)(F)C(F)(F)C1(F)F)c1ccccc1` (configuration not stated), the T/C was 100 % of control (dose: 100.0 mg/kg/injection, schedule: Q04DX003 (ip), vehicle: saline with Tween-80) and 90 % of control (dose: 200.0 mg/kg/injection, schedule: Q04DX003 (ip), vehicle: saline with Tween-80).

In the case of `CCOC(=O)Cc1c[nH]c2ccc(N(CCO)CCO)cc12`, the T/C runs as follows: (dose: 25.0 mg/kg/injection, schedule: Q01DX005 (ip), vehicle: Klucel (hydroxypropylcellulose) (HPC)) 101 % of control; under setting [5], 102 % of control; under setting [6], 102 % of control; under setting [7], 98 % of control.

`CC1=CC[C@@H]2[C@@H](CC[C@@]2(C)O)C(C)(C)[C@H]1CC[C@@H]1[C@@]2(C)CC[C@@H](O)C(C)(C)O[C@@H]2CC[C@]1(C)O`: the T/C is, setting by setting: (dose: 8.0 mg/kg/injection, schedule: Q01DX005 (ip), vehicle: saline + Tween-80 + alcohol) 103 % of control; (dose: 16.0 mg/kg/injection, schedule: Q01DX005 (ip), vehicle: saline + Tween-80 + alcohol) 103 % of control; (dose: 32.0 mg/kg/injection, schedule: Q01DX005 (ip), vehicle: saline + Tween-80 + alcohol) 97 % of control; (dose: 64.0 mg/kg/injection, schedule: Q01DX005 (ip), vehicle: saline + Tween-80 + alcohol) 96 % of control.

For `CC(=O)C(C)OP(=O)(O)OCC[N+](C)(C)C` (configuration not stated), the T/C reads like this: under setting [8], 100 % of control; under setting [9], 104 % of control; under setting [4], 114 % of control.

As to `ClC1CC[N-]CC1.ClC1CC[N-]CC1.[Cl][Pt+2]([Cl])([Cl])[Cl]`, the T/C by setting is: (dose: 1.56 mg/kg/injection, schedule: Q01DX009 (ip), vehicle: saline) 100 % of control; (dose: 3.13 mg/kg/injection, schedule: Q01DX009 (ip), vehicle: saline) 108 % of control; under setting [10], 166 % of control; under setting [11], 192 % of control; under setting [8], 153 % of control; under setting [12], 245 % of control. Further, the T/C under setting [9] is 172 % of control and the T/C (dose: 50.0 mg/kg/injection, schedule: Q01DX009 (ip), vehicle: Klucel (hydroxypropylcellulose) (HPC)) was 113 % of control.

Take `COC(=O)NC1CC(C2CO2)OC1=O` (configuration not stated): the T/C (dose: 50.0 mg/kg/injection, schedule: Q01DX005 (ip), vehicle: saline) is 101 % of control; the T/C (dose: 100.0 mg/kg/injection, schedule: Q01DX005 (ip), vehicle: saline) was 99 % of control; the T/C (dose: 200.0 mg/kg/injection, schedule: Q01DX005 (ip), vehicle: saline) was 109 % of control.

In the case of `CN(C)C1(C)CCC2C3CCC4=CC(=O)CCC4(C)C3CCC21C` (configuration not stated), the T/C is, setting by setting: under setting [5], 97 % of control; under setting [6], 97 % of control; under setting [7], 100 % of control.

Turning to `ClCc1ccc2ccc3ccc(CCl)nc3c2n1`, the T/C is 103 % of control under setting [13], 100 % of control under setting [14] and 104 % of control under setting [15].

In the case of `N#CC12OC1(Cl)CCCC2(Cl)Cl` (configuration not stated), the T/C was 95 % of control under setting [16], 95 % of control under setting [17] and 86 % of control under setting [18].

As for `CN1C(C)(C)CC(C(=O)c2ccccc2)(c2ccccc2)CC1(C)C`, the T/C reads like this: (dose: 50.0 mg/kg/injection, schedule: Q01DX005 (ip), vehicle: saline + Tween-80 + alcohol) 107 % of control; (dose: 100.0 mg/kg/injection, schedule: Q01DX005 (ip), vehicle: saline + Tween-80 + alcohol) 100 % of control.

Turning to `COC1=CC(=C(c2ccc(O)c(OC)c2)c2ccc(O)c(OC)c2)C=CC1=O`, the T/C runs as follows: (dose: 50.0 mg/kg/injection, schedule: Q01DX005 (ip), vehicle: saline with Tween-80) 117 % of control; (dose: 100.0 mg/kg/injection, schedule: Q01DX005 (ip), vehicle: saline with Tween-80) 119 % of control; (dose: 200.0 mg/kg/injection, schedule: Q01DX005 (ip), vehicle: saline with Tween-80) 115 % of control.

As to `CC1(C)CC(=O)N(Cc2ccccc2)N1C(=O)c1ccccc1`, the T/C is 100 % of control (dose: 50.0 mg/kg/injection, schedule: Q01DX001 (ip), vehicle: saline with Tween-80); 95 % of control (dose: 100.0 mg/kg/injection, schedule: Q01DX001 (ip), vehicle: saline with Tween-80); 100 % of control (dose: 200.0 mg/kg/injection, schedule: Q01DX001 (ip), vehicle: saline with Tween-80).

For the molecule `CNCc1c(O)ccc2c(-c3ccccc3)cc(=O)oc12`, the T/C reads like this: (dose: 100.0 mg/kg/injection, schedule: Q04DX002 (ip), vehicle: saline with Tween-80) 100 % of control; (dose: 200.0 mg/kg/injection, schedule: Q04DX002 (ip), vehicle: saline with Tween-80) 101 % of control.

In the case of `O=c1oc2ccc(Cl)cc2c2c1OC(c1ccccc1)CN2` (configuration not stated), the T/C was 110 % of control (dose: 3.13 mg/kg/injection, schedule: Q01DX009 (ip), vehicle: saline with Tween-80); 110 % of control (dose: 6.25 mg/kg/injection, schedule: Q01DX009 (ip), vehicle: saline with Tween-80); 103 % of control (dose: 12.5 mg/kg/injection, schedule: Q01DX009 (ip), vehicle: saline with Tween-80); 103 % of control (dose: 25.0 mg/kg/injection, schedule: Q01DX009 (ip), vehicle: saline with Tween-80).

In the case of `COc1cccc2c1C(=O)c1c(O)c3c(c(O)c1C2=O)CC(O)(C(C)=O)CC3OC1CC(NC(=O)C(CCCCN)NC(=O)C2CCCN2)C(O)C(C)O1` (configuration not stated), the T/C runs as follows: (dose: 2.5 mg/kg/injection, schedule: Q04DX003 (ip), vehicle: water) 93 % of control; (dose: 5.0 mg/kg/injection, schedule: Q04DX003 (ip), vehicle: water) 98 % of control; (dose: 10.0 mg/kg/injection, schedule: Q04DX003 (ip), vehicle: water) 99 % of control and 109 % of control; (dose: 20.0 mg/kg/injection, schedule: Q04DX003 (ip), vehicle: water) 110 % of control and 118 % of control; (dose: 40.0 mg/kg/injection, schedule: Q04DX003 (ip), vehicle: water) 121 % of control and 123 % of control; (dose: 80.0 mg/kg/injection, schedule: Q04DX003 (ip), vehicle: water) 166 % of control.

With `O=C1C(Cl)=C(Nc2cc(Cl)ccc2Cl)C(=O)c2ccccc21`, the T/C by setting is: under setting [13], 98 % of control; under setting [14], 102 % of control; under setting [15], 101 % of control.

With `COc1ccc(S(=O)(=O)OCCCl)cc1`, the T/C under setting [16] was 100 % of control, the T/C under setting [17] is 97 % of control and the T/C under setting [18] was 100 % of control.

With `O=C(C#Cc1ccccc1)c1cccnc1`, the T/C reads like this: (dose: 12.5 mg/kg/injection, schedule: Q04DX003 (ip), vehicle: Klucel (hydroxypropylcellulose) (HPC)) 107 % of control; (dose: 25.0 mg/kg/injection, schedule: Q04DX003 (ip), vehicle: Klucel (hydroxypropylcellulose) (HPC)) 107 % of control.

For `CC(C)CC(NC(c1ccccc1)(c1ccccc1)c1ccccc1)C(=O)O` (configuration not stated), the T/C (dose: 60.0 mg/kg/injection, schedule: Q01DX005 (ip), vehicle: Klucel (hydroxypropylcellulose) (HPC)) is 103 % of control and the T/C (dose: 120.0 mg/kg/injection, schedule: Q01DX005 (ip), vehicle: Klucel (hydroxypropylcellulose) (HPC)) is 106 % of control.

For `O=C(O)CCCCCCCCCCNC(=O)CI`, the T/C is 107 % of control under setting [10], 119 % of control under setting [11] and 119 % of control under setting [12].

Regarding `OC1C2CCCC1C(c1ccccc1)NC2c1ccccc1` (configuration not stated), the T/C by setting is: under setting [1], 100 % of control and 94 % of control; under setting [2], 100 % of control and 94 % of control; under setting [3], 100 % of control.

`O=C(Cc1ccc(OCc2ccccc2)cc1)OCc1ccco1`: the T/C by setting is: under setting [16], 109 % of control; under setting [17], 100 % of control; under setting [18], 100 % of control.
